The target in this assay is T1, GST-tagged-Wee1 kinase (Homo sapiens, UniProt P30291).
T1 construct: purchased Carnabio 05-177
Description: Wee1 time-resolved fluorescence equilibrium binding assay (displacement of Oregon Green-labeled ATP-competitive kinase probe). The settings on record: enzyme binding data; GST-tagged-Wee1 kinase 2 nM, fluorescent probe 300 nM, inhibitor 0.003 to 10 micromolar, 1 hour incubation; read-out: Wee-1 binding (Ki nM). The procedure: Wee1 kinase was assayed using a time-resolved fluorescence equilibrium binding assay monitoring displacement of a rapidly reversible Oregon Green-labeled ATP-competitive kinase probe (N-(2-(2-(2-(4-(4-(5-chloro-4-(2-(1-hydroxycyclobutyl)thiazol-5-yl)-1H-pyrrolo[2,3-b]pyridin-2-yl)phenyl)piperazin-1-yl)ethoxy)ethoxy)ethyl)-2′,7′-difluoro-3′,6′-dihydroxy-3-oxo-3H-spiro[isobenzofuran-1,9′-xanthene]-5-carboxamide) by competitive Wee1 inhibitors.
Table 1 depicts enzyme binding data (Ki)for exemplary compounds.

T1 sequence (P30291 whole entry): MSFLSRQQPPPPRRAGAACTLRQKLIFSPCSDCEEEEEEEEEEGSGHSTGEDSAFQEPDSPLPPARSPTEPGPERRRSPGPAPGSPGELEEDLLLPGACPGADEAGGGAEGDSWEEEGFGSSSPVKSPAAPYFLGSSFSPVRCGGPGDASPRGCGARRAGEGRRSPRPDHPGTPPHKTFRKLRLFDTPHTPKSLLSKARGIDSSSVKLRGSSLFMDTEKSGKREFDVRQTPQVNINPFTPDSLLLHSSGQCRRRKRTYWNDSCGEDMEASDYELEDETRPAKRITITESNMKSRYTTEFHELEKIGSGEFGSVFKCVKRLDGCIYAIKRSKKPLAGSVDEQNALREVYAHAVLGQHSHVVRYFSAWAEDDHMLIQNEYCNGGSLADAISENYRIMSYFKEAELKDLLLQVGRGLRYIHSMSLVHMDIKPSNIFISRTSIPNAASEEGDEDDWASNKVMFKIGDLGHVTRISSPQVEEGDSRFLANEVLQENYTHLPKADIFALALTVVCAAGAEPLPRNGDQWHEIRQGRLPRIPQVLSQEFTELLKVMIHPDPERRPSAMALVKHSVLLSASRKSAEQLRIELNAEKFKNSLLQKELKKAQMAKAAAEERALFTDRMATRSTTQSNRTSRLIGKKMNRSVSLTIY

With `COC(=O)c1ccc(Cl)c(-n2cc(C)c3nc(Nc4ccc5c(c4)CNCC5)ncc3c2=O)c1` [Example 107, methyl 4-chloro-3-[8-methyl-5-oxo-2-(1,2,3,4-tetrahydroisoquinolin-7-ylamino)pyrido[4,3-d]pyrimidin-6(5H)-yl]benzoate], the Ki came to 321 nM. Turning to `COC(=O)c1ccc(Cl)c(-n2cc(C)c3nc(Nc4ccc(N5CCC(N(C)C)CC5)cc4)ncc3c2=O)c1` [Example 108, methyl 4-chloro-3-[2-({4-[4-(dimethylamino)piperidin-1-yl]phenyl}amino)-8-methyl-5-oxopyrido[4,3-d]pyrimidin-6(5H)-yl]benzoate], the Ki worked out at 242 nM. Next, `O=c1c2cnc(Nc3ccc4c(c3)CNCC4)nc2c(CF)cn1-c1c(Cl)cccc1Cl` [Example 109, 6-(2,6-dichlorophenyl)-8-(fluoromethyl)-2-(1,2,3,4-tetrahydroisoquinolin-7-ylamino)pyrido[4,3-d]pyrimidin-5(6H)-one]: 0.3 nM. Next, `O=c1c2cnc(Nc3ccc4c(c3)CCNC4)nc2c(CF)cn1-c1c(Cl)cccc1Cl` [Example 110, 6-(2,6-dichlorophenyl)-8-(fluoromethyl)-2-(1,2,3,4-tetrahydroisoquinolin-6-ylamino)pyrido[4,3-d]pyrimidin-5(6H)-one]: 0.4 nM; `CN(C)C1CCN(c2ccc(Nc3ncc4c(=O)n(-c5c(Cl)cccc5Cl)cc(CF)c4n3)cc2)CC1` [Example 111, 6-(2,6-dichlorophenyl)-2-({4-[4-(dimethylamino)piperidin-1-yl]phenyl}amino)-8-(fluoromethyl)pyrido[4,3-d]pyrimidin-5(6H)-one]: 0.2 nM; `CN(C)C1Cc2ccc(Nc3ncc4c(=O)n(-c5c(Cl)cccc5Cl)cc(CF)c4n3)cc2C1` (stereo not shown) [Example 112, 6-(2,6-dichlorophenyl)-2-{[2-(dimethylamino)-2,3-dihydro-1H-inden-5-yl]amino}-8-(fluoromethyl)pyrido[4,3-d]pyrimidin-5(6H)-one]: 0.4 nM. Next, `CN1Cc2cc(Nc3ncc4c(=O)n(-c5c(Cl)cccc5Cl)cc(CF)c4n3)ccc2C2(CC2)C1` [Example 113, 6-(2,6-dichlorophenyl)-8-(fluoromethyl)-2-[(2′-methyl-2′,3′-dihydro-1′H-spiro[cyclopropane-1,4′-isoquinolin]-7′-yl)amino]pyrido[4,3-d]pyrimidin-5 (6H)-one]: 0.4 nM; `CNC(=O)CSc1ccc(Nc2ncc3c(=O)n(-c4c(Cl)cccc4Cl)cc(C)c3n2)cc1` [Example 114, 2-[(4-{[6-(2,6-dichlorophenyl)-8-methyl-5-oxo-5,6-dihydropyrido[4,3-d]pyrimidin-2-yl]amino}phenyl)sulfanyl]-N-methylacetamide]: 0.8 nM; `Cc1cn(-c2c(Cl)cccc2Cl)c(=O)c2cnc(Nc3ccc4c(c3)CN(C)C4(C)C)nc12` [Example 115, 6-(2,6-dichlorophenyl)-8-methyl-2-[(1,1,2-trimethyl-2,3-dihydro-1H-isoindol-5-yl)amino]pyrido[4,3-d]pyrimidin-5(6H)-one]: 0.2 nM. As to `Cc1cn(-c2c(Cl)cccc2Cl)c(=O)c2cnc(Nc3ccc(NC4CCN(C)CC4)cc3)nc12` [Example 116, 6-(2,6-dichlorophenyl)-8-methyl-2-({4-[(1-methylpiperidin-4-yl)amino]phenyl}amino)pyrido[4,3-d]pyrimidin-5 (6H)-one], the Ki worked out at 0.1 nM.

Take `Cc1cn(-c2ccccc2O)c(=O)c2cnc(Nc3ccc4c(c3)CNCC4)nc12` [Example 117, 6-(2-hydroxyphenyl)-8-methyl-2-(1,2,3,4-tetrahydroisoquinolin-7-ylamino)pyrido[4,3-d]pyrimidin-5(6H)-one]: the Ki is 2 nM.

For `Cc1cccc(O)c1-n1cc(C)c2nc(Nc3ccc4c(c3)CNCC4)ncc2c1=O` [Example 118, 6-(2-hydroxy-6-methylphenyl)-8-methyl-2-(1,2,3,4-tetrahydroisoquinolin-7-ylamino)pyrido[4,3-d]pyrimidin-5(6H)-one], the Ki is 0.6 nM. For the molecule `Cc1nn(C)c(C)c1-n1cc(C)c2nc(Nc3ccc4c(c3)CNCC4)ncc2c1=O` [Example 119, 8-methyl-2-(1,2,3,4-tetrahydroisoquinolin-7-ylamino)-6-(1,3,5-trimethyl-1H-pyrazol-4-yl)pyrido[4,3-d]pyrimidin-5(6H)-one], the Ki worked out at 1.6 nM. For `CNC(=O)CS(=O)(=O)c1ccc(Nc2ncc3c(=O)n(-c4c(Cl)cccc4Cl)cc(C)c3n2)cc1` [Example 120, 2-[(4-{[6-(2,6-dichlorophenyl)-8-methyl-5-oxo-5,6-dihydropyrido[4,3-d]pyrimidin-2-yl]amino}phenyl)sulfonyl]-N-methylacetamide], the Ki turned out to be 0.3 nM. Next, `Cc1cn(-c2c(Cl)cccc2Cl)c(=O)c2cnc(Nc3ccc4c(c3)CNC4(C)C)nc12` [Example 121, 6-(2,6-dichlorophenyl)-2-[(1,1-dimethyl-2,3-dihydro-1H-isoindol-5-yl)amino]-8-methylpyrido[4,3-d]pyrimidin-5(6H)-one]: 0.1 nM; `Cc1cn(-c2c(Cl)cccc2Cl)c(=O)c2cnc(Nc3ccc(OC4CCN(C)CC4)cc3)nc12` [Example 122, 6-(2,6-dichlorophenyl)-8-methyl-2-({4-[(1-methylpiperidin-4-yl)oxy]phenyl}amino)pyrido[4,3-d]pyrimidin-5(6H)-one]: 0.4 nM; `Cc1n[nH]c(C)c1-n1cc(C)c2nc(Nc3ccc4c(c3)CNCC4)ncc2c1=O` [Example 123, 6-(3,5-dimethyl-1H-pyrazol-4-yl)-8-methyl-2-(1,2,3,4-tetrahydroisoquinolin-7-ylamino)pyrido[4,3-d]pyrimidin-5(6H)-one]: 1.3 nM. As for `Cc1noc(C)c1-n1cc(C)c2nc(Nc3ccc4c(c3)CNCC4)ncc2c1=O` [Example 124, 6-(3,5-dimethyl-1,2-oxazol-4-yl)-8-methyl-2-(1,2,3,4-tetrahydroisoquinolin-7-ylamino)pyrido[4,3-d]pyrimidin-5(6H)-one], the figure is 1.6 nM; as for `Cc1cn(-c2c(Cl)cccc2Cl)c(=O)c2cnc(Nc3ccc(NC4CCN(C)C4)cc3)nc12` (stereo not shown) [Example 125, 6-(2,6-dichlorophenyl)-8-methyl-2-({4[(1-methylpyrrolidin-3-yl)amino]phenyl}amino)pyrido[4,3-d]pyrimidin-5(6H)-one], 0.3 nM. `Cc1cccc(C)c1-n1cc(C)c2nc(Nc3ccc4c(c3)CNCC4)ncc2c1=O` [Example 126, 6-(2,6-dimethylphenyl)-8-methyl-2-(1,2,3,4-tetrahydroisoquinolin-7-ylamino)pyrido[4,3-d]pyrimidin-5(6H)-one]: the Ki stood at 0.4 nM. Regarding `Cc1cccc(Cl)c1-n1cc(C)c2nc(Nc3ccc4c(c3)CNCC4)ncc2c1=O` [Example 127, 6-(2-chloro-6-methylphenyl)-8-methyl-2-(1,2,3,4-tetrahydroisoquinolin-7-ylamino)pyrido[4,3-d]pyrimidin-5(6H)-one], the Ki was found to be 0.3 nM. For `CC(O)c1cn(-c2c(Cl)cccc2Cl)c(=O)c2cnc(Nc3ccc(N4CCN(C)CC4)cc3)nc12` (stereo not shown) [Example 128, 6-(2,6-dichlorophenyl)-8-(1-hydroxyethyl)-2-{[4-(4-methylpiperazin-1-yl)phenyl]amino}pyrido[4,3-d]pyrimidin-5(6H)-one], the inhibitory constant (Ki) was 2 nM.

Source of the values: patent US9718821B2, “Pyridopyrimidinone inhibitors of kinases” (AbbVie Inc., priority 2012, dated 2017).
